From the supplement of paper PMC10307832

Assays:
Assay in all cases: relative viability (nuclei count vs DMSO), 5 days (fraction); higher = more cells survive
[1] = compound: C/C(=N\NC(=S)N1CCC1)/C2=CC=CC=N2 + C[C@@H](Oc1cc(-c2cnn(C3CCNCC3)c2)cnc1N)c1c(Cl)ccc(F)c1Cl [Crizotinib] (partner 1 µM)
Outline: (§1)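 Medians of duplicate plates are given as relative viability. That measure is the nuclei count in treated wells divided by the count in vehicle wells. Counts were taken on 4× images of lung cancer cell lines in 1536-well plates, 5 days after pin-tool dosing the day after seeding with one drug alone or a fixed anchor-drug dose plus five library-drug doses (not always all listed) in √10 steps.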

[2] = compound: C/C(=N\NC(=S)N1CCC1)/C2=CC=CC=N2 + O=C(CCCCCCC(=O)Nc1ccccc1)NO [Vorinostat] (partner 1 µM)
Outline: as §1

[3] = compound: C/C(=N\NC(=S)N1CCC1)/C2=CC=CC=N2 + CC1(C)CCC(c2ccc(Cl)cc2)=C(CN2CCN(c3ccc(C(=O)NS(=O)(=O)c4ccc(N[C@H](CCN5CCOCC5)CSc5ccccc5)c(S(=O)(=O)C(F)(F)F)c4)cc3)CC2)C1 [Navitoclax] (partner 0.5 µM)
Outline: as §1

[4] = compound: C/C(=N\NC(=S)N1CCC1)/C2=CC=CC=N2 + Cc1cc(Nc2cc(N3CCN(C)CC3)nc(Sc3ccc(NC(=O)C4CC4)cc3)n2)n[nH]1 [Tozasertib] (partner 0.1 µM)
Outline: as §1

| Cell Line | relative viability ([1]; first compound 0.05 µM) | relative viability ([1]; first compound 0.1581 µM) | relative viability ([1]; first compound 0.5 µM) | relative viability ([1]; first compound 1.581 µM) | relative viability ([1]; first compound 5 µM) | relative viability ([2]; first compound 0.05 µM) | relative viability ([2]; first compound 0.1581 µM) | relative viability ([2]; first compound 0.5 µM) | relative viability ([2]; first compound 1.581 µM) | relative viability ([2]; first compound 5 µM) | relative viability ([3]; first compound 0.05 µM) | relative viability ([3]; first compound 0.1581 µM) | relative viability ([3]; first compound 0.5 µM) | relative viability ([3]; first compound 1.581 µM) | relative viability ([3]; first compound 5 µM) | relative viability ([4]; first compound 0.05 µM) | relative viability ([4]; first compound 0.1581 µM) | relative viability ([4]; first compound 0.5 µM) | relative viability ([4]; first compound 1.581 µM) | relative viability ([4]; first compound 5 µM) |
| --- | --- | --- | --- | --- | --- | --- | --- | --- | --- | --- | --- | --- | --- | --- | --- | --- | --- | --- | --- | --- |
| NCI-H3122 | 0.151 | 0.171 | 0.185 | 0.171 | 0.176 | 0.111 | 0.077 | 0.106 | 0.121 | 0.103 | 0.132 | 0.137 | 0.156 | 0.247 | 0.216 | 0.0931 | 0.0762 | 0.0946 | 0.109 | 0.0776 |
| NCI-H1651 | 0.148 | 0.132 | 0.129 | 0.112 | 0.126 | 0.116 | 0.116 | 0.109 | 0.0595 | 0.0665 | 0.0866 | 0.0844 | 0.0783 | 0.0702 | 0.081 | 0.136 | 0.114 | 0.108 | 0.0885 | 0.0771 |
| NCI-H838 | 0.174 | 0.175 | 0.19 | 0.18 | 0.15 | 0.286 | 0.266 | 0.249 | 0.17 | 0.178 | 0.259 | 0.258 | 0.229 | 0.192 | 0.225 | 0.148 | 0.143 | 0.137 | 0.133 | 0.129 |
| NCI-H596 | 0.896 | 0.302 | 0.242 | 0.251 | 0.258 | 0.27 | 0.255 | 0.253 | 0.241 | 0.23 | 0.66 | 0.38 | 0.226 | 0.274 | 0.161 | 0.445 | 0.34 | 0.191 | 0.195 | 0.2 |
| SK-LU-1 | 0.277 | 0.191 | 0.203 | 0.19 | 0.208 | 0.21 | 0.244 | 0.242 | 0.219 | 0.272 | 0.183 | 0.167 | 0.148 | 0.124 | 0.112 | 0.141 | 0.124 | 0.174 | 0.0952 | 0.136 |
| NCI-H441 | 0.241 | 0.175 | 0.134 | 0.11 | 0.128 | 0.16 | 0.19 | 0.153 | 0.111 | 0.127 | 0.374 | 0.188 | 0.205 | 0.174 | 0.15 | 0.294 | 0.229 | 0.159 | 0.168 | 0.195 |
| SK-MES-1 | 0.231 | 0.214 | 0.179 | 0.167 | 0.177 | 0.198 | 0.208 | 0.182 | 0.177 | 0.183 | 0.186 | 0.21 | 0.18 | 0.13 | 0.185 | 0.22 | 0.188 | 0.183 | 0.158 | 0.147 |
| NCI-H1355 | 0.318 | 0.63 | 0.189 | 0.151 | 0.172 | 0.165 | 0.174 | 0.148 | 0.171 | 0.144 | 0.181 | 0.718 | 0.129 | 0.143 | 0.165 | 0.186 | 0.169 | 0.17 | 0.172 | 0.163 |
| SW 1573 | 0.11 | 0.123 | 0.138 | 0.102 | 0.0709 | 0.0949 | 0.115 | 0.145 | 0.0758 | 0.0799 | 0.138 | 0.0732 | 0.0916 | 0.0833 | 0.0479 | 0.0614 | 0.0887 | 0.0999 | 0.0752 | 0.0626 |
| NCI-H2347 | 0.557 | 0.438 | 0.322 | 0.233 | 0.302 | 0.315 | 0.305 | 0.227 | 0.276 | 0.243 | 0.214 | 0.263 | 0.195 | 0.16 | 0.193 | 0.173 | 0.254 | 0.177 | 0.244 | 0.258 |
| LCLC-97TM1 | 0.155 | 0.307 | 0.103 | 0.0898 | 0.119 | 0.071 | 0.0753 | 0.0572 | 0.0546 | 0.0434 | 0.124 | 0.421 | 0.0929 | 0.115 | 0.104 | 0.193 | 0.218 | 0.105 | 0.128 | 0.165 |
| EMC-BAC-2 | 0.365 | 0.336 | 0.16 | 0.153 | 0.142 | 0.193 | 0.199 | 0.134 | 0.153 | 0.135 | 0.25 | 0.645 | 0.162 | 0.21 | 0.168 | 0.176 | 0.187 | 0.147 | 0.151 | 0.167 |
| NCI-H1975 | 0.177 | 0.144 | 0.159 | 0.143 | 0.156 | 0.173 | 0.167 | 0.136 | 0.154 | 0.167 | 0.169 | 0.143 | 0.152 | 0.163 | 0.168 | 0.105 | 0.0772 | 0.0873 | 0.101 | 0.0836 |
| BEN | 0.193 | 0.182 | 0.244 | 0.177 | 0.169 | 0.233 | 0.293 | 0.296 | 0.281 | 0.3 | 0.0467 | 0.0428 | 0.0598 | 0.115 | 0.114 | 0.334 | 0.354 | 0.336 | 0.352 | 0.397 |
| NCI-H23 | 0.134 | 0.15 | 0.129 | 0.105 | 0.114 | 0.15 | 0.11 | 0.124 | 0.0929 | 0.102 | 0.139 | 0.186 | 0.117 | 0.135 | 0.171 | 0.122 | 0.172 | 0.119 | 0.112 | 0.133 |
| NCI-H520 | 0.0874 | 0.112 | 0.123 | 0.104 | 0.116 | 0.177 | 0.156 | 0.163 | 0.182 | 0.159 | 0.19 | 0.212 | 0.301 | 0.151 | 0.166 | 0.191 | 0.241 | 0.197 | 0.175 | 0.269 |
